According to patent US8993619B2, “Cyclic bridgehead ether DGAT1 inhibitors” (Novartis AG, priority 2012, dated 2015):

Key:
[1] = molecular target: T1, human (His)6DGAT1 (Homo sapiens, UniProt O75907); assay: DGAT1 Inhibition Assay; format: biochemical; settings: membrane preparation from Sf9 cells overexpressing human (His)6DGAT1; LC/MS/MS readout
T1 construct: made in house; host or cells: Sf9 insect cells (membrane preparation)
T1 sequence (O75907 1-488): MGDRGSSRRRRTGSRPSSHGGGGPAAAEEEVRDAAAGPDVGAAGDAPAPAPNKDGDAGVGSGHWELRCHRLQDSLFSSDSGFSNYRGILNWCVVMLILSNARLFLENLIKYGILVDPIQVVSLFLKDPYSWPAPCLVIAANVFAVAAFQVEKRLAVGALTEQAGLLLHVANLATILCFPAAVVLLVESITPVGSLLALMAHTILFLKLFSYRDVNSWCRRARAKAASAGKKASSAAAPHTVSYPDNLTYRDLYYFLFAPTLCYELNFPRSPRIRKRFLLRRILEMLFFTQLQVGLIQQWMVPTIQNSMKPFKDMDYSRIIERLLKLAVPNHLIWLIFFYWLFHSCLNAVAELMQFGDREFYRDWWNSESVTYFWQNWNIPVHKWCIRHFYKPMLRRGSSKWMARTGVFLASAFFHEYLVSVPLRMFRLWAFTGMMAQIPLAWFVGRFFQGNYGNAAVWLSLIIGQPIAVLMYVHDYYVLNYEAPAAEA
Method: The enzyme preparation used in this assay is a membrane preparation from Sf9 cells overexpressing human (His)6DGAT1. During all steps samples were chilled to 4° C. Sf9 cells expressing human (His)6DGAT1 were thawed at room temperature and re-suspended at a 10:1 ratio (mL buffer/g of cells) in 50 mM HEPES, 1× Complete Protease Inhibitor, pH 7.5. The re-suspended pellet was homogenized for 1 min using a Brinkman PT 10/35 homogenizer with a 20 mm generator. Cells were lysed using Avestin Emulsiflex (chilled to 4° C.) at 10000-15000 psi. Lysate was centrifuged at 100,000×g for 1 h at 4° C. Supernatant was removed and pellets were re-suspended in 50 mM HEPES, 1× Complete Protease Inhibitor, pH 7.5 at ⅙ the volume of supernatant. Re-suspended pellets were pooled and homogenized with 10 strokes of a Glas-Col motor driven teflon pestle on setting 70. The protein concentration of the membrane preparation was quantified using BCA protein assay with 1% SDS. The membrane preparation was aliquoted, frozen on dry ice, and stored at −80° C.
For 50 mL, 25 mL of 0.2 M HEPES stock buffer, 0.5 mL of 1 M MgCl2 ([…]), and 24.5 mL of milli-Q H2O are added to the 55 mL Wheaton Potter-Elvehjem homogenizer. Enzyme preparation (0.1 mL) is added to buffer and the mixture is homogenized with 5 strokes on ice using the Glas-Col variable speed homogenizer system on setting 70.
For 50 mL, 0.5 mL 10 mM diolein is added to 9.5 mL of EtOH in a 50 mL Falcon screw cap conical centrifuge tube. Five mL of 10 mM sodium acetate pH 4.5 is added followed by 0.5 mL of 10 mM oleoyl-CoA. Finally, the remaining 4.5 mL of 10 mM sodium acetate pH 4.5 is added followed by 30 mL of milli-Q H20. The solution should be gently agitated by hand to induce mixing. The final concentrations of EtOH and sodium acetate are 20% and 2 mM, respectively.
Dry compounds are dissolved in the appropriate volume of DMSO to a final concentration of 10 mM. […] All dilutions are performed in DMSO in a Greiner 384-well microplate. • 1. 2 μL of compound in DMSO is added to the appropriate wells. […] 25 μL of enzyme mix is added to all wells and plate(s) are incubated for 10 min at RT. • 3. […] Plate(s) are vortexed using Troemner multi-tube vortexer (setting 7 for 10 sec). • 4. 25 μL of substrate mix is added to all wells. Plate(s) are vortexed using Troemner multi-tube vortexer (setting 7 for 10 sec). Plate(s) are incubated for 30 min at RT. • 5. 10 μL of 20% acetic acid quench is added to all wells. Plate(s) are vortexed using Troemner multi-tube vortexer (setting 7 for 10 sec). • 6. 50 μL of 1-butanol w/ glyceryl tripalmitoleate internal standard is added to all wells. • 7. Plate(s) are sealed with super pierce strong plate sealer using the thermo-sealer. • 8. Plate(s) are vortexed using Troemner multi-tube vortexer (setting 10 for 5 min). • 9. Plate(s) are centrifuged at 162×g (1000 rpm for GH-3.8 rotor) for 5 min using Beckman GS-6R tabletop centrifuge.
Where indicated, tripalmitolein was used as an internal standard to control for instrument variation.
Column: Thermo Betabasic 4, 2.1×20 mm
Solvent: 10 mM Ammonium Formate, 0.1% Formic Acid, 2% water, 98% Methanol
Isocratic run 0.5 ml per minute
Data is converted to % inhibition prior to curve fitting using the following equation: […]

[2] = molecular target: T2, DGAT1 in C2C12 cells (Mus musculus, UniProt Q9Z2A7); assay: Cellular assay to measure activity of DGAT1 inhibitors in mammalian cells (C2C12); format: cell-based; settings: C2C12 mouse skeletal muscle cells, 250 μM oleate, 2 h, LC/MS readout
T2 construct: endogenous in cells; host or cells: C2C12 mouse skeletal muscle cells
T2 sequence (Q9Z2A7 1-498): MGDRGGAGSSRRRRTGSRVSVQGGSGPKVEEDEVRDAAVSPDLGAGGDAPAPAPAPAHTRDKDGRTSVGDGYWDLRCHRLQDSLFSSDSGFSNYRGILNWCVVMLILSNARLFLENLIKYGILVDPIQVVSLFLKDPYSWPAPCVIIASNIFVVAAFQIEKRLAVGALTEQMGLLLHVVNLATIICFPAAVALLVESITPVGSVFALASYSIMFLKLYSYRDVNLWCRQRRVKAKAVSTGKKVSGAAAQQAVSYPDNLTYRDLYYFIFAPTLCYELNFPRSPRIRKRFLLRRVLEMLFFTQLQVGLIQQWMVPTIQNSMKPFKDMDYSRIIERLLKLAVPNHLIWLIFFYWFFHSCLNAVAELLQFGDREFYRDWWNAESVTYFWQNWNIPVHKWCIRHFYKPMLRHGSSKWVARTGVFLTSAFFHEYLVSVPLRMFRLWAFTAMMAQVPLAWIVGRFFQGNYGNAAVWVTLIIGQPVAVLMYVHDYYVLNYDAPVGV
Method: C2C12 cells are an immortal mouse skeletal muscle cell line showing an 8-fold enrichment form DGAT1 versus DGAT2. C2C12 cells were routinely cultured in 150 cm2 flasks with DMEM (25 mM glucose) containing 10% FBS, 4 m M L-glutamine, 100 U/ml penicillin and 100 μg/ml streptomycin (30 ml per flask), at 37° C., 5% CO2 and 95% humidity. All studies were performed on cells at passage 10 or less.
C2C12 cells were seeded in 96-well plates in DMEM containing […] glucose and 10% FBS, 18 h (at 37° C.) prior to assay (all wells of the plate are used). […] Compounds were added at 1:3 dilution, 11 points and DMSO control, the starting concentration was usually 40 μM. Each point was dosed in quadruplicate allowing 2 compounds to be dosed per plate. The medium was removed at the end of the incubation and 200 μl/well of 1-butanol added. The 1-butanol contained an internal standard, tripalmitolein (2 μM). The plates were sealed with an adhesive plate sealer and left at room temperature for at least 30 min, then spun down at 209×g for 5 min.
Butanolic extracts were transferred to 384-well LC-MS plates (80 μl/well) and the plate heatsealed with a foil plate sealer. The 384-well plates containing sample were spun down at 209×g for 5 min prior to loading on the LC-MS.
Where indicated, tripalmitolein was used as an internal standard to control for instrument variation. HPLC conditions as above.

SMILES	IC50 [1]	IC50 [2]	IC50 ([2]; heading: DGAT1-C2C12 IC50)
O=C(O)CC12CCC(c3ccc(-c4ccc(Nc5nnc(C6CCC6)s5)cn4)cc3)(CC1)CO2 [Example 3, 2-(4-(4-(5-((5-cyclobutyl-1,3,4-thiadiazol-2-yl)amino)pyridin-2-yl)phenyl)-2-oxabicyclo[2.2.2]octan-1-yl)acetic acid]	53.5 nM	15 nM	
O=C(O)CC12CCC(c3ccc(-c4cnc(Nc5nnc(C6CCC6)s5)nc4)cc3)(CC1)CO2 [Example 4, 2-(4-(4-(2-(5-cyclobutyl-1,3,4-thiadiazol-2-ylamino)pyrimidin-5-yl)phenyl)-2-oxabicyclo[2.2.2]octan-1-yl)acetic acid]	14000 nM	2500 nM	
O=C(O)CC12CCC(c3ccc(-c4ccc(Nc5nnc(C6CCC6)s5)nc4)cc3)(CC1)CO2 [Example 5, 2-(4-(4-(6-((5-cyclobutyl-1,3,4-thiadiazol-2-yl)amino)pyridin-3-yl)phenyl)-2-oxabicyclo[2.2.2]octan-1-yl)acetic acid]	375 nM	1240 nM	
O=C(O)CC12CCC(c3ccc(-c4ccc(Nc5nnc(C6CCC6)s5)cc4)cc3)(CC1)CO2 [Example 6, 2-(4-(4′-(5-cyclobutyl-1,3,4-thiadiazol-2-ylamino)biphenyl-4-yl)-2-oxabicyclo[2.2.2]octan-1-yl)acetic acid]	12.5 nM	2 nM	
Cc1nc(C(=O)Nc2ccc(-c3ccc(C45CCC(CC(=O)O)(CC4)OC5)cc3)cc2)c(C(F)(F)F)o1 [Example 10, 2-(4-(4′-(2-methyl-5-(trifluoromethyl)oxazole-4-carboxamido)-[1,1′-biphenyl]-4-yl)-2-oxabicyclo[2.2.2]octan-1-yl)acetic acid]	360 nM	56 nM	
Cc1nc(C(=O)Nc2ccc(-c3ccc(C45CCC(CC(=O)O)(CC4)OC5)cc3)nc2)c(C(F)(F)F)o1 [Example 12, 2-(4-(4-(5-(2-methyl-5-(trifluoromethyl)oxazole-4-carboxamido)pyridin-2-yl)phenyl)-2-oxabicyclo[2.2.2]octan-1-yl)acetic acid]	878 nM		
CC(C)(C)c1cnc(Nc2ccc(-c3ccc(C45CCC(CC(=O)O)(CC4)OC5)cc3)nc2)o1 [Example 14, 2-(4-(4-(5-((5-(tert-butyl)oxazol-2-yl)amino)pyridin-2-yl)phenyl)-2-oxabicyclo[2.2.2]octan-1-yl)acetic acid]	130 nM	108 nM	
CCc1nc(C)c(C(=O)Nc2ccc(-c3ccc(C45CCC(CC(=O)O)(CC4)CO5)cc3)cc2)o1 [Example 18, 2-(1-(4′-(2-ethyl-4-methyloxazole-5-carboxamido)-[1,1′-biphenyl]-4-yl)-2-oxabicyclo[2.2.2]octan-4-yl)acetic acid]	2900 nM	160 nM	
O=C(O)CC12CCC(c3ccc(-c4ccc(Nc5nnc(C6CCC6)o5)cc4)cc3)(CC1)OC2 [Example 19, {1-[4′-(5-cyclobutyl-[1,3,4]oxadiazol-2-ylamino)-biphenyl-4-yl]-2-oxa-bicyclo[2.2.2]oct-4-yl}-acetic acid]	260 nM	6 nM	

Further lines, results first:

IC50 [1]	IC50 [2]	IC50 ([2]; heading: DGAT1-C2C12 IC50)	SMILES
345 nM	288 nM		CC(C)(C)c1nnc(Nc2ccc(-c3ccc(C45CCC(CC(=O)O)(CC4)OC5)cc3)nc2)o1 [Example 1, 2-(4-(4-(5-(5-tert-butyl-1,3,4-oxadiazol-2-ylamino)pyridin-2-yl)phenyl)-2-oxabicyclo[2.2.2]octan-1-yl)acetic acid]
99 nM	9 nM		CC(C)(C)c1nnc(Nc2ccc(-c3ccc(C45CCC(CC(=O)O)(CC4)OC5)cc3)cc2)o1 [Example 8, 2-(4-(4′-(5-tert-butyl-1,3,4-oxadiazol-2-ylamino)biphenyl-4-yl)-2-oxabicyclo[2.2.2]octan-1-yl)acetic acid]
230000 nM		528 nM	O=C(O)CC12CCC(c3ccc(-c4ccc(Nc5nnc(C6CC6)o5)cc4)cc3)(CC1)CO2 [Example 9, 2-(4-(4′-((5-cyclopropyl-1,3,4-oxadiazol-2-yl)amino)-[1,1′-biphenyl]-4-yl)-2-oxabicyclo[2.2.2]octan-1-yl)acetic acid]
44 nM	7 nM		CC(C)(C)c1cnc(Nc2ccc(-c3ccc(C45CCC(CC(=O)O)(CC4)OC5)cc3)cc2)o1 [Example 15, 2-(4-(4′-((5-(tert-butyl)oxazol-2-yl)amino)-[1,1′-biphenyl]-4-yl)-2-oxabicyclo[2.2.2]octan-1-yl)acetic acid]
60 nM	38 nM		CC(C)Cc1nnc(Nc2ccc(-c3ccc(C45CCC(CC(=O)O)(CC4)OC5)cc3)cc2)o1 [Example 16, 2-(4-(4′-((5-isobutyl-1,3,4-oxadiazol-2-yl)amino)-[1,1′-biphenyl]-4-yl)-2-oxabicyclo[2.2.2]octan-1-yl)acetic acid]
53 nM	31 nM		CC(C)(C)Cc1nnc(Nc2ccc(-c3ccc(C45CCC(CC(=O)O)(CC4)OC5)cc3)cc2)o1 [Example 17, 2-(4-(4′-((5-neopentyl-1,3,4-oxadiazol-2-yl)amino)-[1,1′-biphenyl]-4-yl)-2-oxabicyclo[2.2.2]octan-1-yl)acetic acid]
